Key:
[1] = biological target: T1, SRC (Homo sapiens, UniProt P12931); experiment: Off-chip Mobility Shift Assay, kinase inhibition; format: biochemical; conditions: recombinant SRC; for inhibition at 0.001 µM: at 1 nM; for inhibition at 0.01 µM: at 10 nM
T1 construct: purchased Carna Biosciences, Inc

[2] = biological target: T2, FYN(isoform a) (Homo sapiens, UniProt P06241); experiment: Off-chip Mobility Shift Assay, kinase inhibition; format: biochemical; conditions: at 10 nM; recombinant FYN(isoform a)
T2 construct: purchased Carna Biosciences, Inc

[3] = biological target: T3, FGR (Homo sapiens, UniProt P09769); experiment: Off-chip Mobility Shift Assay, kinase inhibition; format: biochemical; conditions: at 10 nM; recombinant FGR; read-out: inhibition
T3 construct: purchased Carna Biosciences, Inc

[4] = system: battery of selected protein kinases; experiment: In vitro screen of a battery of selected protein kinases (summary statement); format: biochemical; conditions: BTK, BMX, ABL, ABL(E255K), SRC, ACK, ARG, BLK, DDR2, EPHA, FGR, FMS, FRK, FYN, HCK, LCK, LYN, PDGFRα, PDGFRβ, YES, PIK3CA/PIK3R1, among others
[5] = biological target: T4, BLK (Homo sapiens, UniProt P51451); experiment: Off-chip Mobility Shift Assay, kinase inhibition; format: biochemical; conditions: at 10 nM; recombinant BLK
T4 construct: purchased Carna Biosciences, Inc

[6] = Metabolic stability in human liver microsomes; format: in vitro ADME; conditions: for In vitro t1/2: 1 μM, human liver microsomes 0.5 mg/mL, NADPH and UDPGA, 37° C.; for metabolic stability compared to dasatinib: human liver microsomes
[7] = biological target: T5, HCK (Homo sapiens, UniProt P08631); experiment: Off-chip Mobility Shift Assay, kinase inhibition; format: biochemical; conditions: recombinant HCK; for inhibition at 0.001 µM: at 1 nM; for inhibition at 0.01 µM: at 10 nM, read-out: inhibition
T5 construct: purchased Carna Biosciences, Inc

[8] = Pharmacokinetics in Sprague-Dawley rats, 2-in-1 dosing; format: in vivo; conditions: rat; for V: intravenous 1 mg/kg
Protocol: Sprague-Dawley rats (approximate weight 275-300 g, N=3) were dosed intravenously at 5 mL/kg and orally at 10 mL/kg with the above dosing solutions. Blood samples were collected into tubes containing EDTA as the anticoagulant at 0, 0.25 (intravenous only), 0.5, 1, 2, 4, 8, 10, and 24 h post-dosing, and plasma samples were prepared by centrifugation. The plasma samples were mixed with 3× volumes of acetonitrile containing 100 nM reserpine as the internal standard, and centrifuged at 4000 RPM for 15 min. The supernatants were injected for LC/MS analysis which were carried out on a AB Sciex 4000 Q Trap LC/MS/MS system coupled with Shimadzu Prominence UFLCXR 20 series (including a CBM-20A controller, two LC-20ADXR solvent delivery units, SIL-20AC HT autosampler, CTO-20A column oven, and a SPD-20A UV detector). The samples were separated on a Phenomenex Columbus column (C18, 4 μm, 50×2 mm) eluted with two solvent systems: 2 mM ammonium acetate in water containing 0.1% formic acid (A) and methanol (B) at a linear gradient starting with 25% B. Electrospray ionization in positive mode was used to acquire LC/MS/MS data.

[9] = biological target: T6, TEC (Homo sapiens, UniProt P42680); experiment: Off-chip Mobility Shift Assay, kinase inhibition; format: biochemical; conditions: at 1 nM; recombinant TEC
T6 construct: purchased Carna Biosciences, Inc
T6 sequence (P42680 1-631): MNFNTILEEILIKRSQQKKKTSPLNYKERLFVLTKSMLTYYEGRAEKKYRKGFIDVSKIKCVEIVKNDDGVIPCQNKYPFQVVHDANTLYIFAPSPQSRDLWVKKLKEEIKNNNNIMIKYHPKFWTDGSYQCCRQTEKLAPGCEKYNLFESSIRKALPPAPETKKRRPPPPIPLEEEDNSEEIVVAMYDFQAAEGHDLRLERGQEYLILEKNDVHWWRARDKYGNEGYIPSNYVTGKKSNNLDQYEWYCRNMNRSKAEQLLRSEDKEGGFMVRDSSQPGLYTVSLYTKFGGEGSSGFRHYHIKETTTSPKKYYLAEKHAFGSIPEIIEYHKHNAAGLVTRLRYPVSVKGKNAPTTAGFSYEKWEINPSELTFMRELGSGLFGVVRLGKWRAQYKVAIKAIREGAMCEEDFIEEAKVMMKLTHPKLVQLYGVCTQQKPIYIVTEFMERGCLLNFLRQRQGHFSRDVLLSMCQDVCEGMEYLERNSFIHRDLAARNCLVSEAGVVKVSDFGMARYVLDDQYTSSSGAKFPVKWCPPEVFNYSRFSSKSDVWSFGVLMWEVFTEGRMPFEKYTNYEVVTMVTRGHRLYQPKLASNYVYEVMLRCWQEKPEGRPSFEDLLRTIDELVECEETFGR

[10] = biological target: T7, BTK (Homo sapiens, UniProt Q06187); experiment: Off-chip Mobility Shift Assay, kinase inhibition; format: biochemical; conditions: recombinant BTK; for inhibition at 0.001 µM: at 1 nM; for inhibition at 0.01 µM: at 10 nM
T7 construct: purchased Carna Biosciences, Inc

[11] = biological target: T8, ACK (Homo sapiens, UniProt Q07912); experiment: Off-chip Mobility Shift Assay, kinase inhibition; format: biochemical; conditions: at 10 nM; recombinant ACK
T8 construct: purchased Carna Biosciences, Inc

[12] = biological target: T9, PDGFRα (Homo sapiens, UniProt P16234); experiment: Off-chip Mobility Shift Assay, kinase inhibition; format: biochemical; conditions: at 10 nM; recombinant PDGFRα; read-out: inhibition
T9 construct: purchased Carna Biosciences, Inc

[13] = biological target: T10, LCK (Homo sapiens, UniProt P06239); experiment: Off-chip Mobility Shift Assay, kinase inhibition; format: biochemical; conditions: recombinant LCK; for inhibition at 0.001 µM: at 1 nM; for inhibition at 0.01 µM: at 10 nM
T10 construct: purchased Carna Biosciences, Inc

[14] = biological target: T11, ARG (Homo sapiens, UniProt P42684); experiment: Off-chip Mobility Shift Assay, kinase inhibition; format: biochemical; conditions: at 10 nM; recombinant ARG; read-out: inhibition
T11 construct: purchased Carna Biosciences, Inc

[15] = biological target: T12, ABL(E255K) (Homo sapiens, UniProt P00519, E255K); experiment: Off-chip Mobility Shift Assay, kinase inhibition; format: biochemical; conditions: recombinant ABL(E255K); for inhibition at 0.001 µM: at 1 nM; for inhibition at 0.01 µM: at 10 nM
T12 construct: purchased Carna Biosciences, Inc

[16] = biological target: T13, YES (Homo sapiens, UniProt P07947); experiment: Off-chip Mobility Shift Assay, kinase inhibition; format: biochemical; conditions: recombinant YES; for inhibition at 0.001 µM: at 1 nM; for inhibition at 0.01 µM: at 10 nM
T13 construct: purchased Carna Biosciences, Inc

[17] = system: SU-DHL-4; experiment: Cell inhibition assay (PrestoBlue, 48 h); format: cell-based; conditions: Homo sapiens, SU-DHL-4, 48 h, SU-DHL-4 diffuse large B-cell lymphoma cells, read-out: IC50, inhibition of growth
[18] = system: Mino; experiment: Cell inhibition assay (PrestoBlue, 48 h); format: cell-based; conditions: Homo sapiens, Mino cells, read-out: IC50, inhibition of growth
[19] = Table 2, co-dosed with compound IV

T8 sequence (Q07912 whole entry): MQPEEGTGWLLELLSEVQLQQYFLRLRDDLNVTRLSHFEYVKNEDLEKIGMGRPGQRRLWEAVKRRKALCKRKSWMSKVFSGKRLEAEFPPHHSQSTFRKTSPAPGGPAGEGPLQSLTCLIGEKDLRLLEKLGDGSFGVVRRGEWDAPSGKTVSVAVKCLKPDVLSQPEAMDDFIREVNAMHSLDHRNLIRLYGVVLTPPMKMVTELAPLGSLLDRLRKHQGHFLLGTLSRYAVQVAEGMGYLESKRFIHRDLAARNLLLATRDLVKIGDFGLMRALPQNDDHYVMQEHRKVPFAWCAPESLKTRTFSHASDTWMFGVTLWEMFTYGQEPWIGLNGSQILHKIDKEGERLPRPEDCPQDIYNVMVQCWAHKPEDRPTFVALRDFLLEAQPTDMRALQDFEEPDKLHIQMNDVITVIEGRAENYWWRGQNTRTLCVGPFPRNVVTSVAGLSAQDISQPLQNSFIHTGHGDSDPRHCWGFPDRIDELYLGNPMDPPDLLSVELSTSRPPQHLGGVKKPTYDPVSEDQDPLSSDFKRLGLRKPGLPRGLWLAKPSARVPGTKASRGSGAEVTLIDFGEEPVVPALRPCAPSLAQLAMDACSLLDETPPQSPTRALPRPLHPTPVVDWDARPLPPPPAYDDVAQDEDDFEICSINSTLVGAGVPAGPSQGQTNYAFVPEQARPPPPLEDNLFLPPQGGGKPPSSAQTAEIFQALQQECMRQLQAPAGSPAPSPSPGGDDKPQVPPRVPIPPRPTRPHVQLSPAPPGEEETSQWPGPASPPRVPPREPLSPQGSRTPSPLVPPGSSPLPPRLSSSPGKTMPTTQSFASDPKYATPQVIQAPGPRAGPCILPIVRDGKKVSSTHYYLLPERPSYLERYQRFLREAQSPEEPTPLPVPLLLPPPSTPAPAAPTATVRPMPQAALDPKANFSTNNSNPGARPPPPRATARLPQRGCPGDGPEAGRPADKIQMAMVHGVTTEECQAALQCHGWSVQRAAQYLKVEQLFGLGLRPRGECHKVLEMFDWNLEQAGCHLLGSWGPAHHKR
T12 sequence (P00519 whole entry E255K): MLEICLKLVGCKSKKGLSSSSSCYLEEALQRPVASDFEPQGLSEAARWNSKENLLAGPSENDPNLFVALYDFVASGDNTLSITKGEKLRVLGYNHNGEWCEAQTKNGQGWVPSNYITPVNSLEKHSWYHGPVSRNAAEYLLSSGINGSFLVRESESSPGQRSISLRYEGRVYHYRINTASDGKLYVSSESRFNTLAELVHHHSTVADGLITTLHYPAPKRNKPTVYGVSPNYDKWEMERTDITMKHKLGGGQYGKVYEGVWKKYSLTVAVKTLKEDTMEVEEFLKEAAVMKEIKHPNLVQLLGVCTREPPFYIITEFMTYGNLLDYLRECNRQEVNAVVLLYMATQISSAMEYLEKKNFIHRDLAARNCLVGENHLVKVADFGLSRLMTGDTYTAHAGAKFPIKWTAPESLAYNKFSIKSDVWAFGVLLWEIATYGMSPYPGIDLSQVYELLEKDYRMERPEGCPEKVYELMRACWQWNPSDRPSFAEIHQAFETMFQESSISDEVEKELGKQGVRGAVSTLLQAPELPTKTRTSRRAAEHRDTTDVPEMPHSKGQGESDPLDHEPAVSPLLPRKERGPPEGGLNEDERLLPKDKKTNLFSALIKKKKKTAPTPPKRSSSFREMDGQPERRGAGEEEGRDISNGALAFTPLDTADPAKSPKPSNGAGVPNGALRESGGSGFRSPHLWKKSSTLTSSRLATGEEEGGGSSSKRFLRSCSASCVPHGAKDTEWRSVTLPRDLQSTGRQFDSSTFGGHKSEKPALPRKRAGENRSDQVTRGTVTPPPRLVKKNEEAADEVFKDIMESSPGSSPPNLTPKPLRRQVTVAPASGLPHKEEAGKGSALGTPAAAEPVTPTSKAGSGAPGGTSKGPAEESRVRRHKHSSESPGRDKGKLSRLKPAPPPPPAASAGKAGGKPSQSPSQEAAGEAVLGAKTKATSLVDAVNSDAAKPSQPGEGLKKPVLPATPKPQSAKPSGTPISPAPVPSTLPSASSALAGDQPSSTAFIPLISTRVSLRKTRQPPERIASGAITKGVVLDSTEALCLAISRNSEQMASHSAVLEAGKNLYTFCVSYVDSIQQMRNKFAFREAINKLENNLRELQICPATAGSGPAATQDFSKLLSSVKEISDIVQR
T1 sequence (P12931 whole entry): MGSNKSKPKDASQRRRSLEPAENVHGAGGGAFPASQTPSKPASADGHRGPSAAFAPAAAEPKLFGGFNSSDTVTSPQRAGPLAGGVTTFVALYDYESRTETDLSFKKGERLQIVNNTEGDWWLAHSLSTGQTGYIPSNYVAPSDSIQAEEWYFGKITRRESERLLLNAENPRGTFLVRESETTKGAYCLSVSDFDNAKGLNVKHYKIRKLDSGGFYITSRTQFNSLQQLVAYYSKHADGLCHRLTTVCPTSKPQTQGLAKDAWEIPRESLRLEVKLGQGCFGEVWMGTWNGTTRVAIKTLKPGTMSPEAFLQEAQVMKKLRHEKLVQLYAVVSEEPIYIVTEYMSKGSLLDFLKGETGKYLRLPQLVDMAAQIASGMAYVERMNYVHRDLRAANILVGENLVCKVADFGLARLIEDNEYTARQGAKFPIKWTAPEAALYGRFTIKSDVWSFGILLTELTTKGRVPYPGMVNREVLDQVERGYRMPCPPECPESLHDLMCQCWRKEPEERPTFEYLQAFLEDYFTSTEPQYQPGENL
T10 sequence (P06239 whole entry): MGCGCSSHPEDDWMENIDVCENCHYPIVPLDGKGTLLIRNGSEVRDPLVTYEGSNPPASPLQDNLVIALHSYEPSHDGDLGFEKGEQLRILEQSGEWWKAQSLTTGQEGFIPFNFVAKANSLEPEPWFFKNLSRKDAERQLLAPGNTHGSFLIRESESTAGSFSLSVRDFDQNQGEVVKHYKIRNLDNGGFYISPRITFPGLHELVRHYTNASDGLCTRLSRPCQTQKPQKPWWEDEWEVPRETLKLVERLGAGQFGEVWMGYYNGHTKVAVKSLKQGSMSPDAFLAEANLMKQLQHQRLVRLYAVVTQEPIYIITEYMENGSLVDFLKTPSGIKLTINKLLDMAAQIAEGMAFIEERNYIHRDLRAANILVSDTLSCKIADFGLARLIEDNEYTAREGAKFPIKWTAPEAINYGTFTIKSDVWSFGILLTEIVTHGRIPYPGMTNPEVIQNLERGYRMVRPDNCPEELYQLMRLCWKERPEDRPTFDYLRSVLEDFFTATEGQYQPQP
T13 sequence (P07947 whole entry): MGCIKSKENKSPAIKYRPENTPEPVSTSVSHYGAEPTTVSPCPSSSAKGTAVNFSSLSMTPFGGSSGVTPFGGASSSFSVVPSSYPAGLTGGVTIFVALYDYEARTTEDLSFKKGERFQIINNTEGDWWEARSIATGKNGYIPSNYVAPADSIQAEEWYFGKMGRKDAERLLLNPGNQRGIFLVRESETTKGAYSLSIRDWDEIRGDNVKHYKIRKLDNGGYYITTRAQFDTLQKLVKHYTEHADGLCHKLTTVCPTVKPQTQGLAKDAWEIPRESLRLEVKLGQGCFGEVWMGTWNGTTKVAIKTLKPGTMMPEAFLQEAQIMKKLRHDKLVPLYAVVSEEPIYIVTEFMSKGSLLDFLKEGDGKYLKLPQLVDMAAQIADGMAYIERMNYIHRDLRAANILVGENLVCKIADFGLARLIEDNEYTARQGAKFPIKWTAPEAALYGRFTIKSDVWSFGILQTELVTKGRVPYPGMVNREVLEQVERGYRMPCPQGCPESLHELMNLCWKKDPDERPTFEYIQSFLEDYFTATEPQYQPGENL
T3 sequence (P09769 whole entry): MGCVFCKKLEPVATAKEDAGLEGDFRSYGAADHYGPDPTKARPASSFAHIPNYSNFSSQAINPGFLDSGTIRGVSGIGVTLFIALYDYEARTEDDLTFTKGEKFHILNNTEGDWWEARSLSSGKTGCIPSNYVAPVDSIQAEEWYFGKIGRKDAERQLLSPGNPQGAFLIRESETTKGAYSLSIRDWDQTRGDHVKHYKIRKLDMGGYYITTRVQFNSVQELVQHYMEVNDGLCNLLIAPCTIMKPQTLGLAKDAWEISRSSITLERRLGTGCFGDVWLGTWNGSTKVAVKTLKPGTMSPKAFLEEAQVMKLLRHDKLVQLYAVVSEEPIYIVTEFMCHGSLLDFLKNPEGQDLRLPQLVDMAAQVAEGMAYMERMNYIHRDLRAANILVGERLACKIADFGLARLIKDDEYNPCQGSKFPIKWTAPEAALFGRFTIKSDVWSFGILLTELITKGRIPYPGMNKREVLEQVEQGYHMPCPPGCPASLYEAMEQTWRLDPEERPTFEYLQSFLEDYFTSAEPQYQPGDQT
T5 sequence (P08631 whole entry): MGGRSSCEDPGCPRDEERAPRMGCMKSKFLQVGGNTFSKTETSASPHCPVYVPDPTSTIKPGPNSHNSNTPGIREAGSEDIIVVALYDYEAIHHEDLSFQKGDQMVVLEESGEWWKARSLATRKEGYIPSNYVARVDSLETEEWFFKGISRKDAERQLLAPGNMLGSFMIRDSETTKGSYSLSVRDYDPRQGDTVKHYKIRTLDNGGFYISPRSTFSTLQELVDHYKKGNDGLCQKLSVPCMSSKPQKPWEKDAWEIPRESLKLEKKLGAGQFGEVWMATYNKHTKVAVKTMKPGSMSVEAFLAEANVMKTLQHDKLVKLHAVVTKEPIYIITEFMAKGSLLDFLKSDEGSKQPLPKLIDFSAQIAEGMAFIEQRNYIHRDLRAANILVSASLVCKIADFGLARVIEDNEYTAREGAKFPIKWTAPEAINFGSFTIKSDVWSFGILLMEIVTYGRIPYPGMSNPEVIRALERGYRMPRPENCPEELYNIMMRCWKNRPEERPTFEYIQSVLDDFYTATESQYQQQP

| Structure (SMILES) | inhibition at 0.001 µM [1] [%] | inhibition at 0.01 µM [1] [%] | inhibition at 0.01 µM [2] [%] | inhibition at 0.01 µM [3] [%] | activity to inhibit kinases [4] | inhibition at 0.01 µM [5] [%] | In vitro t1/2 [6] [h] | metabolic stability compared to dasatinib [6] | inhibition at 0.001 µM [7] [%] | inhibition at 0.01 µM [7] [%] | intravenous plasma clearance compared to dasatinib and compound III [8] | intravenous volume of distribution compared to dasatinib and compound III [8] | inhibition at 0.001 µM [9] [%] | inhibition at 0.001 µM [10] [%] | inhibition at 0.01 µM [10] [%] | inhibition at 0.01 µM [11] [%] | inhibition at 0.01 µM [12] [%] | inhibition at 0.001 µM [13] [%] | inhibition at 0.01 µM [13] [%] | inhibition at 0.01 µM [14] [%] | further results |
| --- | --- | --- | --- | --- | --- | --- | --- | --- | --- | --- | --- | --- | --- | --- | --- | --- | --- | --- | --- | --- | --- |
| [2H]c1cc(C)c(NC(=O)c2cnc(Nc3cc(N4CC[C@@H](O)C4)nc(C)n3)s2)c(Cl)c1 [Compound V, N-(2-chloro-4-deutero-6-methylphenyl)-2-[[2-methyl-6-((R)-3-hydroxypyrrolidin-1-yl)pyrimidin-4-yl]amino]thiazole-5-carboxamide] | > 50 | > 50 | > 50 | > 50 | potent activity | > 50 | 1.12 | significantly greater stability | > 50 | > 50 | much lower intravenous plasma clearance | significantly lower intravenous volume of distribution values | > 50 | > 50 | > 50 | > 50 | > 50 | > 50 | > 50 | > 50 | V [8, 19]: 1 ± 0 L/kg; inhibition at 0.001 µM [15]: > 50%; inhibition at 0.01 µM [15]: > 50%; inhibition at 0.001 µM [16]: > 50%; inhibition at 0.01 µM [16]: > 50%; IC50 [17]: < 20 nM; IC50 [18]: < 50 nM |
| Cc1nc(Nc2ncc(C(=O)Nc3c(C)cccc3Cl)s2)cc(N2CC[C@@H](O)C2)n1 [Compound XI, N-(2-chloro-6-methylphenyl)-2-[[2-methyl-6-((R)-3-hydroxypyrrolidin-1-yl)pyrimidin-4-yl]amino]thiazole-5-carboxamide] | > 50 | > 50 | > 50 | > 50 | potent activity | > 50 | 0.983 | significantly greater stability | > 50 | > 50 | much lower intravenous plasma clearance | significantly lower intravenous volume of distribution values | > 50 | > 50 | > 50 | > 50 | > 50 | > 50 | > 50 | > 50 | V ([8]; Table 3, co-dosed with compound X): 1 ± 0 L/kg; inhibition at 0.001 µM [15]: > 50%; inhibition at 0.01 µM [15]: > 50%; inhibition at 0.001 µM [16]: > 50%; inhibition at 0.01 µM [16]: > 50%; IC50 [17]: < 20 nM; IC50 [18]: < 50 nM |
| [2H]c1cc(C)c(NC(=O)c2cnc(Nc3cc(N4CC[C@H](O)C4)nc(C)n3)s2)c(Cl)c1 [Compound IV, N-(2-chloro-4-deutero-6-methylphenyl)-2-[[2-methyl-6-((S)-3-hydroxypyrrolidin-1-yl)pyrimidin-4-yl]amino]thiazole-5-carboxamide] | > 50 | > 50 | > 50 | > 50 | potent activity | > 50 | 1.47 | significantly greater stability | > 50 | > 50 | much lower intravenous plasma clearance | significantly lower intravenous volume of distribution values | > 50 | > 50 | > 50 | > 50 | > 50 | > 50 | > 50 | > 50 | V [8, 19]: 1 ± 0 L/kg; inhibition at 0.001 µM [15]: > 50%; inhibition at 0.01 µM [15]: > 50%; inhibition at 0.001 µM [16]: > 50%; inhibition at 0.01 µM [16]: > 50%; IC50 [17]: < 20 nM; IC50 [18]: < 50 nM |

Source: patent publication US10479786B2, “Protein kinase inhibitors” (Princeton Drug Discovery Inc, priority 2016, dated 2019)
